This is an account of results in PMC11187217, “Anti-adhesive, anti-biofilm and fungicidal action of newly synthesized gemini quaternary ammonium salts” (Scientific Reports, 2024).

The structures appear in SMILES notation.

For this series, the system named is Salmonella Typhimurium TA100. Particulars: TA100, positive control 15 μg/mL. Here is the method: The mutagenic potential of the tested gemini QAS was determined using the Ames test[83] using Salmonella Typhimurium TA98 and Salmonella Typhimurium TA100 with defects in histidine biosynthesis. The culture of S. Typhimurium TA98 and S. Typhimurium TA100 was incubated with shaking at 37 °C for 18 h, centrifuged (3000 rpm, 5 min) and OD = 1.5 was determined, at a wavelength of λ = 590 nm. The agar was dissolved and cooled to 42 °C. […] The media were incubated for 48 h at 37 °C. The positive control for the S. Typhimurium TA98 strain was acriflavin (100 μg/ml), and for the S. Typhimurium TA100 strain, sodium azide (15 μg/ml). The negative control was the culture without tested compound and with NaCl (0,9%). After incubation, the colonies were counted and the mutagenicity index (MR) was determined—the ratio of the number of revertants resulting from the mutagenic effect of the tested compound to the number of spontaneous revertants. Experiment was performed in three repetitions.

Regarding `[N-]=[N+]=[N-].[Na+]` [sodium azide, reference compound], the “Mutagenicity ratio (MR)” value worked out at 25.5. The compound also displayed a Number of colonies (± SD) of 5116.0 ± 5.66.
